The test system of data set [1] is hepatic stage of P. berghei. The data set is described as follows: In vitro activity against P. berghei hepatic stages (luciferase-expressing sporozoites in Huh-7 cells, bioluminescence). It is filed as cell-based, Plasmodium berghei. To be noted: Plasmodium berghei, Huh-7, 48 h; for activity at 1 µM / activity at 10 µM: DMSO = 100, read-out: INFECTION Ø screening. The method, then:
Activity against the hepatic stage of P. berghei infection was assessed using the human hepatoma cell line Huh-7 (deposited at the Japanese Collection of Research Bioresources under JCRB0403). The protocol was previously comprehensively described by Prudêncio et al. and by Ploemen et al.. […] Cells were seeded in 96-well plates at a density of 1 × 10^4 cells per well in 100 µL of culture medium and incubated at 37 °C with 5% CO2 for approximately 18 h. […] The culture medium was substituted by infection medium with diluted compounds 1 hour in advance of infection. Luciferase-expressing P. berghei sporozoites (PbA-LuciGFPcon spz) were freshly obtained through the dissection of salivary glands from infected female Anopheles stephensi mosquitoes. Sporozoites were added to the cells at 1:1 ratio, i.e., 1 × 10^4 sporozoites were added per well, and then subjected to centrifugation at 1800× g for 5 min. The plate was then incubated for 46 h at 37 °C with 5% CO2, at which time Huh-7 cell confluency was indirectly assessed by the alamarBlue assay (Invitrogen, Waltham, MA, USA), as reported in the manufacturer’s protocol. Parasite load was assessed 48 h post-infection by a bioluminescence assay, as reported by the manufacturer (Biotium, Fremont, CA, USA). GraphPad Prism 8 (GraphPad Software, Inc., La Jolla, CA, USA) was used to obtain IC50 values using nonlinear regression analysis to fit the dose-response curves normalized results.

For data set [2], the system named is Huh-7 cell line. The data set is described as follows: Huh-7 cell confluency by alamarBlue assay during hepatic-stage test. It is filed as cell-based. On the procedure:
Activity against the hepatic stage of P. berghei infection was assessed using the human hepatoma cell line Huh-7 (deposited at the Japanese Collection of Research Bioresources under JCRB0403). The protocol was previously comprehensively described by Prudêncio et al. and by Ploemen et al.. Briefly, cell culture medium consisted of 1640 RPMI medium supplemented with 10% v/v fetal calf serum, 1% v/v L-glutamine, 1% v/v nonessential amino acids, 1% v/v penicillin/streptomycin, and 10 mM HEPES, pH 7. Cells were seeded in 96-well plates at a density of 1 × 10^4 cells per well in 100 µL of culture medium and incubated at 37 °C with 5% CO2 for approximately 18 h. […] The culture medium was substituted by infection medium with diluted compounds 1 hour in advance of infection. Luciferase-expressing P. berghei sporozoites (PbA-LuciGFPcon spz) were freshly obtained through the dissection of salivary glands from infected female Anopheles stephensi mosquitoes. Sporozoites were added to the cells at 1:1 ratio, i.e., 1 × 10^4 sporozoites were added per well, and then subjected to centrifugation at 1800× g for 5 min. The plate was then incubated for 46 h at 37 °C with 5% CO2, at which time Huh-7 cell confluency was indirectly assessed by the alamarBlue assay (Invitrogen, Waltham, MA, USA), as reported in the manufacturer’s protocol. Parasite load was assessed 48 h post-infection by a bioluminescence assay, as reported by the manufacturer (Biotium, Fremont, CA, USA). GraphPad Prism 8 (GraphPad Software, Inc., La Jolla, CA, USA) was used to obtain IC50 values using nonlinear regression analysis to fit the dose-response curves normalized results.
A general note: The colour change of resazurin is a common sign of viable cells or microbes.

Data set [3] relates to P. falciparum NF54 ring-stage synchronized cultures. The data set is described as follows: In vitro activity against P. falciparum blood stages (flow cytometry, SYBR green I). It is filed as cell-based, Plasmodium falciparum. The following applies: Control = 7.76333, 48 h. On the procedure:
Activity against the blood stage of P. falciparum infection was assessed by flow cytometry analysis following the incubation of either test compounds or the drug vehicle (DMSO) with ring-stage synchronized parasite cultures, as previously described. Stock solutions of the test compounds, as well as of the positive control compound chloroquine, were prepared in DMSO and diluted to test concentrations in complete malaria culture medium (CMCM), i.e., 1640 RPMI medium supplemented with 25 mM HEPES, 2.4 mM L-glutamine, 50 µg/mL gentamicin, 0.5% w/v Albumax, 11 mM glucose, 1.47 mM hypoxanthine, and 37.3 mM NaHCO3. Samples at tested concentration were then incubated with ring-stage synchronized cultures of P. falciparum NF54 at 2.5% hematocrit and at approximately 1% parasitemia in 96-well plates at 37 °C in a 5% CO2 and 5% O2 atmosphere. Forty-eight hours post incubation, parasite load was assessed by flow cytometry, upon staining with the DNA-specific dye SYBR green I. Approximately 100,000 events were analyzed in each flow cytometry measurement.
In general terms: Flow cytometry measures light scatter and fluorescence of single cells or particles in a stream.

Data set [4] deals with HepG2 cells. The data set is described as follows: Cytotoxicity assessment in vitro (MTT assay). It is filed as cell-based. To be noted: c = 10 μM, in %. The method, then: (§1) HepG2 cells of human hepatocellular carcinoma (ATCC HB-8065; passage 20–25), purchased from Health Protection Agency Culture Collections (ECACC, Salisbury, UK), were cultured in Minimum Essential Medium Eagle supplemented with 10% v/v fetal bovine serum and 1% v/v L-glutamine solution (Sigma-Aldrich, St. Louis, MO, USA) at 37 °C in a humidified atmosphere containing 5% CO2. For passaging, the cells were treated with trypsin/EDTA (Sigma-Aldrich, St. Louis, MO, USA) at 37 °C and then harvested. For the cytotoxicity evaluation, the cells treated with the test substances were used, while untreated HepG2 cells served as a control group. The cells were seeded in a 96-well plate at a density of 1 × 10^4 cells per well and incubated for 24 h. All tested compounds were dissolved in DMSO to prepare 10 mM stock solutions and diluted to the desired concentration just before the cell treatment. Cytotoxicity of all studied derivatives was screened at 10 μM concentration, and all samples were measured in triplicates. Positive and negative controls were also included. Plates were incubated for 24 h in a humidified atmosphere containing 5% CO2 at 37 °C. After the incubation, a solution of thiazolyl blue tetrazolium bromide (Sigma-Aldrich, St. Louis, MO, USA) in RPMI 1640 medium without phenol red (BioTech, Prague, Czech Republic) was added and incubated for 3 h in a humidified atmosphere containing 5% CO2 at 37 °C. Afterwards, formazan crystals were dissolved in DMSO, and the absorbance of samples was recorded at 570 nm (Synergy Neo2 Multi-Mode Reader NEO2SMALPHAB; BioTek, Winooski, VT, USA).
In general terms: Tetrazolium assays rely on reduction of a dye to a coloured formazan, in cell work by metabolically active cells.

The nature of data set [5]: Cytotoxicity assessment in vitro (MTT assay). Format: cell-based. To be noted: human, HepG2 cells; c = 10 µM, 24 h, MTT; read-out: HepG2 % of cell viability compared to non-treated control (100%). On the procedure: as §1
Setting [6] is: at 1 μM, DMSO = 100, in % (unit assumed).
Where [7] appears, read: at 10 μM, DMSO = 100, in % (unit assumed).

On to `CCC(=O)OC1CN2Cc3cc4c(cc3C13C=CC(OC)CC23)OCO4` (centres unmarked) [29a, 11-O-propionylhaemanthamine], for which, in data set [1], the activity at 1 µM came out at 87.6% and the activity at 10 µM was 71.9%. In addition, the “CELL CONFLUENCY Ø screening” value in data set [2] (setting [6]) came to 95.58. Moreover, the “CELL CONFLUENCY Ø screening” value in data set [2] (setting [7]) was 90.95.

For `COC1C=CC23c4cc5c(cc4CN(CC2OC(=O)C(C)C)C3C1)OCO5` (centres unmarked) [29b, 11-O-isobutanoylhaemanthamine], the activity at 1 µM in data set [1] stood at 71.4%. Also, the activity at 10 µM in data set [1] was 70.6%. Moreover, the results for the “CELL CONFLUENCY Ø screening” value in data set [2] (setting [6]) and in data set [2] (setting [7]) were 106.7 and 111.9, respectively.

For `COC1C=CC23c4cc5c(cc4CN(CC2OC(=O)c2cccc(C)c2)C3C1)OCO5` (centres unmarked) [29c, 11-O-(3-methylbenzoyl)haemanthamine], in data set [1], the activity at 1 µM was 96.8% and the activity at 10 µM stood at 28.3%. In addition, the “CELL CONFLUENCY Ø screening” value in data set [2] (human, 46 h, 1 µM, pH 7) worked out at 124.3. Besides, the “CELL CONFLUENCY Ø screening” value in data set [2] (human, 46 h, 10 µM, pH 7) was 135.7.

As to `COC1C=CC23c4cc5c(cc4CN(CC2OC(=O)c2ccc(C)cc2)C3C1)OCO5` (centres unmarked) [29d, 11-O-(4-methylbenzoyl)haemanthamine], in data set [1], the activity at 1 µM came to 47.8% and the activity at 10 µM turned out to be 29%. The “CELL CONFLUENCY Ø screening” value in data set [2] (human, 46 h, 1 µM, pH 7) turned out to be 120.6. For the same molecule, in data set [2] (human, 46 h, 10 µM, pH 7), the “CELL CONFLUENCY Ø screening” value was determined as 113.7.

On to `COc1ccccc1C(=O)OC1CN2Cc3cc4c(cc3C13C=CC(OC)CC23)OCO4` (centres unmarked) [29e, 11-O-(2-methoxybenzoyl)haemanthamine], for which, in data set [1], the activity at 1 µM was found to be 67.6% and the activity at 10 µM came out at 28.8%. Moreover, the “CELL CONFLUENCY Ø screening” value in data set [2] (human, 46 h, 1 µM, pH 7) is 124.9. Moreover, in data set [2] (human, 46 h, 10 µM, pH 7), the “CELL CONFLUENCY Ø screening” value is 167.5.

Take `COc1cccc(C(=O)OC2CN3Cc4cc5c(cc4C24C=CC(OC)CC34)OCO5)c1` (centres unmarked) [29f, 11-O-(3-methoxybenzoyl)haemanthamine]: the activity at 1 µM in data set [1] was 76.1%. Further, the activity at 10 µM in data set [1] was determined as 29.8%. The “CELL CONFLUENCY Ø screening” value in data set [2] (setting [6]) is 130.9; in data set [2] (setting [7]), 134.6.

`COc1ccc(C(=O)OC2CN3Cc4cc5c(cc4C24C=CC(OC)CC34)OCO5)cc1` (centres unmarked) [29g, 11-O-(4-methoxybenzoyl)haemanthamine]: in data set [1], the activity at 1 µM stood at 49.1% and the activity at 10 µM is 42.6%. For the same molecule, the “CELL CONFLUENCY Ø screening” value in data set [2] (human, 46 h, 1 µM, pH 7) was determined as 95.31. Also, in data set [2] (human, 46 h, 10 µM, pH 7), the “CELL CONFLUENCY Ø screening” value is recorded as 88.51.

Take `COc1ccc(C(=O)OC2CN3Cc4cc5c(cc4C24C=CC(OC)CC34)OCO5)cc1OC` (centres unmarked) [29h, 11-O-(3,4-dimethoxybenzoyl)haemanthamine]: the activity at 1 µM in data set [1] was found to be 90.4%. Moreover, in data set [1], the activity at 10 µM turned out to be 46%. For the same molecule, the “CELL CONFLUENCY Ø screening” value is given as 101.7 in data set [2] (human, 46 h, 1 µM, pH 7) and 100.3 in data set [2] (human, 46 h, 10 µM, pH 7).

As for `COc1cc(OC)cc(C(=O)OC2CN3Cc4cc5c(cc4C24C=CC(OC)CC34)OCO5)c1` (centres unmarked) [29i, 11-O-(3,5-dimethoxybenzoyl)haemanthamine], in data set [1], the activity at 1 µM worked out at 64% and the activity at 10 µM was found to be 27.5%. For the same molecule, the “CELL CONFLUENCY Ø screening” value in data set [2] (human, 46 h, 1 µM, pH 7) is given as 123.1. Also, in data set [2] (human, 46 h, 10 µM, pH 7), the “CELL CONFLUENCY Ø screening” value is 120.8.

Turning to `COC1C=CC23c4cc5c(cc4CN(CC2OC(=O)c2cccc([N+](=O)[O-])c2)C3C1)OCO5` (centres unmarked) [29j, 11-O-(3-nitrobenzoyl)haemanthamine], in data set [1], the activity at 1 µM came out at 78.2% and the activity at 10 µM amounted to 48.5%. The “CELL CONFLUENCY Ø screening” value in data set [2] (human, 46 h, 1 µM, pH 7) amounted to 100.8. Moreover, the “CELL CONFLUENCY Ø screening” value in data set [2] (human, 46 h, 10 µM, pH 7) is recorded as 94.5.

For `COC1C=CC23c4cc5c(cc4CN(CC2OC(=O)c2ccc([N+](=O)[O-])cc2)C3C1)OCO5` (centres unmarked) [29k, 11-O-(4-nitrobenzoyl)haemanthamine], in data set [1], the activity at 1 µM is 63.6% and the activity at 10 µM came to 71%. Besides, the “CELL CONFLUENCY Ø screening” value in data set [2] (setting [6]) worked out at 104.8. The “CELL CONFLUENCY Ø screening” value in data set [2] (setting [7]) is 91.29.

With `CCN(CC)CCCC(C)Nc1ccnc2cc(Cl)ccc12` (centres unmarked) [CQ, chloroquine, reference compound], the “Ø screening, blood stage parasite load” value came out at 8.54 in data set [3] (at 10 nM), 2.057 in data set [3] (at 500 nM) and 2.187 in data set [3] (at 100 nm).

As for `COc1cccc2c1C(=O)c1c(O)c3c(c(O)c1C2=O)C[C@@](O)(C(=O)CO)C[C@@H]3O[C@H]1C[C@H](N)[C@H](O)[C@H](C)O1` [Doxorubicine, reference compound], in data set [4] (DMSO = 100), the “Ø screening, HepG2 (sheet Graphs)” value worked out at 65.91. The “1. screening of cytotoxic potential, HepG2 cell line” value in data set [4] (replicate 1) amounted to 62.5. Moreover, the “2. screening of cytotoxic potential, HepG2 cell line” value in data set [4] (replicate 2) is reported as 75.09. The “3. screening of cytotoxic potential, HepG2 cell line” value in data set [4] (replicate 3) amounted to 60.13. In addition, the viability at 24 h, 10 µM in data set [5] came to 66 ± 8%.

`COc1cc(NC(C)CCCN)c2ncccc2c1` (centres unmarked) [Primaquine, reference compound]: the IC50 in data set [1] (read-out: IC50 P. berghei) came to 5.74 ± 0.86 µM.

One may read the viability as a per cent measure of how many cells are alive, often set against a control. By IC50 is commonly meant the concentration that gives 50% inhibition.

For the origin of these results see paper PMC10056443, “Derivatives of Amaryllidaceae Alkaloid Ambelline as Selective Inhibitors of Hepatic Stage of Plasmodium berghei Infection In Vitro” (Pharmaceutics, 2023).
